Activity calls are given as the source filed them.
Legend:
[1] = Luminescence Cell-Based Dose Confirmation HTS to Identify Inhibitors of Platelet Dense Granule Release. [Related pubchem assays: 1663 (Primary HTS), 1678 (Summary of Project)]; type: functional
[2] = target: Luciferin 4-monooxygenase (Photinus pyralis, UniProt P08659); test: inhibition of purified Photinus pyralis luciferase – biochemical, luminescence, dose response (AID 1891)
[3] = viability of HCT116 lacking mutant beta-catenin – cell-based, human colon tumor, dose response (AID 1045); type: functional;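 further: HCT116 colon tumor cells with beta catenin knocked out; cells exposed to compound for 60 hours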
[4] = viability of PTEN-deleted HCT116 cells – cell-based, HCT116 PTEN knockout, dose response (AID 1047); type: functional;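 further: HCT116 colon tumor cells with PTEN knocked out; cells exposed to compound for 60 hours before readout; potency for loss of cell viability measured by luminescence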
[5] = target: T1, Polyadenylate-binding protein 1 (Homo sapiens, UniProt P11940); test: MLLE binding blockers, Cy5 peptide tracer – biochemical, fluorescence polarization, Cy5-PAM2 peptide, secondary, miRNA deadenylation inhibitor project, dose response (AID 602260); type: functional; conditions: read-out: IC50_Mean
T1 sequence (P11940 whole entry, the tested form may be a part): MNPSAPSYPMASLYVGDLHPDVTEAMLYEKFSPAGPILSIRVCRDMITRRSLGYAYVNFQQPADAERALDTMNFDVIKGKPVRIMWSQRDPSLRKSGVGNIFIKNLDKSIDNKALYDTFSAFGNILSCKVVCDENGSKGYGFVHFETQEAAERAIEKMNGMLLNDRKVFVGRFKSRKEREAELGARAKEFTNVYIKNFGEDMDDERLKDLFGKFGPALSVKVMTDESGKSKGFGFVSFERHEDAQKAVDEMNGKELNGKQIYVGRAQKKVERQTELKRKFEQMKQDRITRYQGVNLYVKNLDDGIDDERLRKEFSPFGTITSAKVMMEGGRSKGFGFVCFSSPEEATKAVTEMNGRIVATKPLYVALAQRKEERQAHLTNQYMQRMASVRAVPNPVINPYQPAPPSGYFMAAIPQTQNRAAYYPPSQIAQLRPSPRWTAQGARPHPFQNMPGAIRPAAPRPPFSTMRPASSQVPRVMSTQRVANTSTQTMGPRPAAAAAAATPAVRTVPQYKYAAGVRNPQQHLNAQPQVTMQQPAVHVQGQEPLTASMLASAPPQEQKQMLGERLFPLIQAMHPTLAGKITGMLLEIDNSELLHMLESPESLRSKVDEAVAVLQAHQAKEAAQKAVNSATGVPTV

[6] = target: T1, Polyadenylate-binding protein 1; test: MLLE domain peptide-binding blockers, IC50 – biochemical, fluorescence polarization, FITC-PAM2 peptide, dose response (AID 602259); type: functional; conditions: read-out: IC50_Mean
[7] = target: Induced myeloid leukemia cell differentiation protein Mcl-1 (Homo sapiens, UniProt Q07820); type: functional
Induced myeloid leukemia cell differentiation protein Mcl-1, sequence (Q07820 whole entry): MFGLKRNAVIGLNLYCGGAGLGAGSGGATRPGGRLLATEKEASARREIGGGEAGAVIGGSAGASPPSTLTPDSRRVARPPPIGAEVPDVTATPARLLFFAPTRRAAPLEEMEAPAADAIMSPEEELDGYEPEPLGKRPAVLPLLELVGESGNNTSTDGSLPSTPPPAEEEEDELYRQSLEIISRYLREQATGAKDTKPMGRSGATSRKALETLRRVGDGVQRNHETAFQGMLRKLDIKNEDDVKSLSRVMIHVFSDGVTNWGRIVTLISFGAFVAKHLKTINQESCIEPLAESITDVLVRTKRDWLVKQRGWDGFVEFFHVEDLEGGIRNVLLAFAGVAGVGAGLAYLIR

SN12K1 = test: cells; type: functional; conditions: Homo sapiens
P388/ADR = test: cells; type: functional; conditions: Mus musculus
P388 = test: cells; type: functional; conditions: Mus musculus
[8] = target: T2, Rac GTPase-activating protein 1 (Homo sapiens, UniProt Q9H0H5); test: blockers of MgcRacGAP-driven Rac1 GTP hydrolysis – biochemical, ADP Hunter fluorescence, primary and confirmatory, confirmation (AID 624330); type: functional
T2 sequence (Q9H0H5 whole entry): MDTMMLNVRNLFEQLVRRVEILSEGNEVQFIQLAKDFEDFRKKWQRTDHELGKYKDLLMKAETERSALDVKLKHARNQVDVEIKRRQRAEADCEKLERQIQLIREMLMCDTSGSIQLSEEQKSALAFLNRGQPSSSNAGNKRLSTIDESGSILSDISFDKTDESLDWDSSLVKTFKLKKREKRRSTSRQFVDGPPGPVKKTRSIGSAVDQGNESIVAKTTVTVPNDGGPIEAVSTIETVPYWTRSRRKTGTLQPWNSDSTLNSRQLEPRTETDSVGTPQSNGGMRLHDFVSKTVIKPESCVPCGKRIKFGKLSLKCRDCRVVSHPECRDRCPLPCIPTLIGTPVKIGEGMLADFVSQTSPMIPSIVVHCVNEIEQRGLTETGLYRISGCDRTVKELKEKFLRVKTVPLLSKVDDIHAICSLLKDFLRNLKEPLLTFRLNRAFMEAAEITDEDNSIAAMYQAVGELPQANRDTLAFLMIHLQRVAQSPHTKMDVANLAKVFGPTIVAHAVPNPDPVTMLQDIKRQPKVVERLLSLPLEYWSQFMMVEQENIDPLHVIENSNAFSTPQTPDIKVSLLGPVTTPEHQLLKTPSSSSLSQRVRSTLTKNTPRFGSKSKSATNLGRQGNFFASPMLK

Large T antigen = Large T antigen (Simian virus 40, UniProt P03070); type: functional, Betapolyomavirus macacae;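 further: Confirmatory-stage PubChem screen for compounds that inhibit SV40 T antigen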
Large T antigen, sequence (P03070 whole entry): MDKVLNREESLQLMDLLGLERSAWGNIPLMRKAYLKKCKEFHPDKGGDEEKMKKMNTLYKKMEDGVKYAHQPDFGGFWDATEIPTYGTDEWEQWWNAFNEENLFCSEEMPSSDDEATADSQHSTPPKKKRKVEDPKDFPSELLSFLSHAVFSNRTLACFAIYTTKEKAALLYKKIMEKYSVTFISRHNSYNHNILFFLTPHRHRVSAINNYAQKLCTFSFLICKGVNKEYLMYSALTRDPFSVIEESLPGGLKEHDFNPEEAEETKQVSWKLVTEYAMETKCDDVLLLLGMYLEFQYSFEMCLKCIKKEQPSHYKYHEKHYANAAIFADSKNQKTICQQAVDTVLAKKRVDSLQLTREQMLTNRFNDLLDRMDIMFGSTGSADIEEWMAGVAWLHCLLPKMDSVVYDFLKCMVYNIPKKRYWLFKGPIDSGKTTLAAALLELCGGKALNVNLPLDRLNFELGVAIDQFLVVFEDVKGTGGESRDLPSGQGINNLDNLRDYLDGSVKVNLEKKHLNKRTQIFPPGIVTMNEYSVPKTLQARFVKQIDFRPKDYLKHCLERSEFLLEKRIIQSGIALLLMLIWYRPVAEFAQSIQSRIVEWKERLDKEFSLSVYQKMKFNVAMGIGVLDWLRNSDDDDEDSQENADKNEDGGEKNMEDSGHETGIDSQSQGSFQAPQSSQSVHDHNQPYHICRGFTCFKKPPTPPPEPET

INS1 = test: INS-1E survival protection against cytokine death – cell-based, luminescence, retest, dose response (AID 449756); type: functional; conditions: Rattus norvegicus;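 further: cell death triggered by IL-1 beta plus TNF-alpha plus IFN-gamma mixture; protective hits raise ATP signal compared with cytokine alone wells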
[9] = non-specific 3'UTR reporter inhibition in Clone20-Shn3RL – cell-based, Renilla luciferase, cherry-picked, counter-screen for Shn3 inhibitor project, dose response (AID 624133); type: functional
[10] = loss of viability in HepG2 cells – cell-based, CellTiter-Glo, cherry-picked, cytotoxicity control for Shn3 inhibitor project, dose response (AID 624134); type: functional
[11] = reduction of Shn3 3'UTR-driven luciferase in osteoblasts – cell-based, Clone20 osteoblasts, firefly luciferase, cherry-picked, dose response (AID 624132); type: functional;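 further: firefly luciferase luminescence from reporter carrying the Shn3 3'UTR in osteoblasts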
[12] = Luminescence Cell-Based Dose Response HTS to Identify Inhibitors of 5'UTR Stem-Loop Driven Prion Protein mRNA Translation in H4 Neuroglioblastoma Cells. [Related pubchem assays: 1827 (Project Summary), 1813 (Primary HTS)]; type: functional
BJ [13] = test: BJ-TERT fibroblast viability loss – cell-based, RAS-independent, luminescence, dose response (AID 1933); type: functional, Homo sapiens; conditions: Homo sapiens, BJ
BJ [14] = test: BJ-TERT-LT-ST fibroblast viability loss – cell-based, RAS-independent, luminescence, dose response (AID 1935); type: functional, Homo sapiens; conditions: Homo sapiens, BJ;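 further: BJ fibroblasts immortalized with TERT plus LT and ST oncogenes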
[15] = DRD fibroblast viability loss – cell-based, non-viral oncogenic, luminescence, dose response (AID 1934); type: functional; conditions: Homo sapiens
BJ [16] = test: cells; type: functional, cell-based, Homo sapiens; conditions: Homo sapiens, BJ

Luciferin 4-monooxygenase, sequence (P08659 whole entry): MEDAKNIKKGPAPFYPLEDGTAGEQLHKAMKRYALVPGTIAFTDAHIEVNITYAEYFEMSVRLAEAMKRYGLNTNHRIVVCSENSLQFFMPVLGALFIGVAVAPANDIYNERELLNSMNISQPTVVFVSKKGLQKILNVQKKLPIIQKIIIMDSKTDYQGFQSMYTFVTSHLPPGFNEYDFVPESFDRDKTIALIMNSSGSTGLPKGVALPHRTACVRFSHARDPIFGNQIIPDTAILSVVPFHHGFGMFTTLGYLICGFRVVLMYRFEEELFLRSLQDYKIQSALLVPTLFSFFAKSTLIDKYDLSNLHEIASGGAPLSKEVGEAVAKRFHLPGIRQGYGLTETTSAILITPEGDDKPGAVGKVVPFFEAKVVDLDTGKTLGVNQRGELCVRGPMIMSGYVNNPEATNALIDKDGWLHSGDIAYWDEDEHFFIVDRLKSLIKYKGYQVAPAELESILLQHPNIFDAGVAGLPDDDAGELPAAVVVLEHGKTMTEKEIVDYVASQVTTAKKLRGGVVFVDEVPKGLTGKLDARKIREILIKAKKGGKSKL

Row | SMILES | GI50 (SN12K1) | GI50 (P388/ADR) | GI50 (P388) | other results
1 | COc1ccc(NC(=O)C2CCCN(c3nn4c(=O)cc(C)nc4s3)C2)cc1 (configuration not stated) |  |  |  | EC50 [1]: > 112 µM (not active); EC50 [2]: > 112 µM (not active)
2 | COc1ccc(NC(=O)NCCCN2CCN(c3cc(C)ccc3C)CC2)cc1 |  |  |  | EC50 [3]: 7.42 µM (active); EC50 [4]: 10.2 µM (active)
3 | O=[N+]([O-])c1ccc(S(=O)(=O)Nc2ccc3c(c2)OCCO3)cc1 |  |  |  | IC50 [5]: > 66 µM (inactive); IC50 [6]: > 66 µM (inactive)
4 | O=C(Nc1cccc(S(=O)(=O)N2CCOCC2)c1)c1c2c(nc3ccccc13)CCC2 |  |  |  | IC50 [7]: 5.02 µM (active)
5 | Cc1ccccc1-c1nc(S(=O)(=O)c2ccccc2)c(N2CCCC2)o1 |  |  |  | IC50 [5]: > 66 µM (inactive); IC50 [6]: > 66 µM (inactive)
6 | Nc1nc(F)nc2c1ncn2C1OC(COP(=O)(O)O)C(O)C1O (configuration not stated) | 18.1 µM (inactive) | 4.22 µM (inactive) | 3.24 µM (inactive) | 
7 | CC1CC(C)CC(C)C(O)/C(C#N)=C/C=C/CC(C2CCCC2C(=O)O)OC(=O)CC(O)C(C)C1 (configuration not stated) | < 0.0109 µM (active) | < 0.01 µM (active) | < 0.01 µM (active) | 
8 | Cc1cc(C)c(C2=NO[C@@H]3[C@H]2C(=O)C=C2N(Cc4ccccc4)CCO[C@@]23O)c(C)c1 | > 100 µM (inactive) | > 100 µM (inactive) | > 100 µM (inactive) | 
9 | CC1CC=CC(O)C1 (configuration not stated) | > 100 µM (inactive) | > 100 µM (inactive) | 55 µM (inactive) | 
10 | CCN(CC)CCOC(=O)Cc1cccc2c(=O)cc(-c3ccccc3)oc12 | 24.7 µM (inactive) | 122 µM (inactive) | 206 µM (inactive) | 
11 | CN(C)CCNC(=O)c1ccc(Cl)c2ccc(-c3ccccc3)nc12 | 2.28 µM (inactive) | 1.95 µM (inactive) | 1.13 µM (inactive) | 
12 | COCC1N=C(c2cc(OC)c(OC)c(OC)c2-c2cc3c(cc2[C@@H](C)O)OCO3)O[C@H]1c1ccccc1 (some centres not stated) | 55.5 µM (inactive) | > 100 µM (inactive) | 64.3 µM (inactive) | 
13 | COc1cc(C2c3cc4c(cc3[C@@H](Nc3cccc([N+](=O)[O-])c3)C3COC(=O)[C@H]23)OCO4)cc(OC)c1O (some centres not stated) | 0.589 µM (active) | 0.783 µM (active) | < 0.0193 µM (active) | 
14 | COc1cc(/C=N\NC(=O)c2ccc(Cn3nc([N+](=O)[O-])c(Cl)c3C)o2)ccc1O |  |  |  | IC50 [8]: 30.5 µM (active); IC50 (Large T antigen): 32.7 µM (active)
15 | COc1cc(/C=N/N(C)c2ccccc2)ccc1O |  |  |  | IC50 [8]: 15.6 µM (active); IC50 (Large T antigen): 8.47 µM (active)
16 | CN(C)c1ccc(/C=N/NC(=O)c2cccc(C(=O)N/N=C/c3ccc(N(C)C)cc3)n2)cc1 |  |  |  | IC50 [7]: 1.15 µM (active)
17 | N#CC(c1ccc(Cl)cc1)c1ccc2c(C(F)(F)F)cc(C(F)(F)F)nc2n1 (configuration not stated) |  |  |  | AC50 (INS1): 0.54 µM (active); AC50 [9]: 1.38 µM (active); AC50 [10]: 2.97 µM (active); AC50 [11]: 0.487 µM (active); EC50 [3]: 0.321 µM (active); EC50 [12]: 8.03 µM (active); EC50 [4]: 0.349 µM (active)
18 | C[C@@H](CN1CC(=O)NC(=O)C1)N1CC(=O)NC(=O)C1 [DEXRAZOXANE] | 24.2 µM (inactive) | 394 µM (inactive) | 49.3 µM (inactive) | 
19 | O=C(O)C[C@H](O)C[C@H](O)/C=C/c1c(C2CC2)nc2ccccc2c1-c1ccc(F)cc1 [PITAVASTATIN CALCIUM] |  |  |  | EC50 (BJ [13]): 0.299 µM (active); EC50 (BJ [14]): 0.559 µM (active); EC50 [15]: 0.353 µM (active); EC50 (BJ [16]): 4.21 µM (active)

Source: ChEMBL document CHEMBL1201862, “PubChem BioAssay data set” (2004)
